Assay results reported in US20040142952A1, “Triazoloquinazoline and pyrazolotriazolopyrimidine derivatives, medicinal compositions, adenosine a3 receptor affinity agents, ocular tension lowering agents, preparations for preventing and treating glaucoma and method of lowering ocular tension” (priority 2001, published 2004).

SMILES | melting point [°C]
CCCCc1nc2c(cnn2C)c2nc(-c3ccc(C)cc3)nn12 [Example 120, 5-n-butyl-7-methyl-2-(4-methylphenyl)pyrazolo[4,3-e]-1,2,4-triazolo[1,5-c]pyrimidine] | 156 to 157
CCCCc1nc2ccccc2c2nc(-c3cccnc3)nn12 [Example 40, 5-n-butyl-2-(3-pyridyl)-1,2,4-triazolo[1,5-c]quinazoline] | 140 to 141.5
CCCCc1nc2nncc-2c2nc(-c3cc(OC)c(OC)c(OC)c3)[nH]n12 [Example 15, 5-n-butyl-2-(3,4,5-trimethoxyphenyl)pyrazolo[4,3-e]-1,2,4-triazolo[1,5-c]pyrimidine] | 259 to 262
CCCCc1nc2ccccc2c2nc(-c3ccccc3OC)nn12 [Example 33, 5-n-butyl-2-(2-methoxyphenyl)-1,2,4-triazolo[1,5-c]quinazoline] | 106.5 to 107.5
O=C(O)CCCc1nc2ccccc2c2nc(-c3ccc(Cl)cc3)nn12 [Example 156, 4-[2-(4-chlorophenyl)-1,2,4-triazolo[1,5-c]quinazolin-5-yl]butyric acid] | 227 to 228
CCCCc1nc2c(cnn2CC)c2nc(-c3ccccc3)nn12 [Example 114, 5-n-butyl-7-ethyl-2-phenylpyrazolo[4,3-e]-1,2,4-triazolo[1,5-c]pyrimidine] | 146 to 147
CCCCc1nc2nn(CCC)cc2c2nc(-c3ccc(Cl)cc3)nn12 [Example 127, 5-n-butyl-2-(4-chlorophenyl)-8-n-propylpyrazolo[4,3-e]-1,2,4-triazolo[1,5-c]pyrimidine] | 137 to 138
CCCc1nc2ccc(Cl)cc2c2nc(-c3ccccc3)nn12 [Example 73, 9-chloro-2-phenyl-5-n-propyl-1,2,4-triazolo[1,5-c]quinazoline] | 140.5 to 141.5
CCCCc1nc2c(cnn2C)c2nc(-c3ccccc3)nn12 [Example 110, 5-n-butyl-7-methyl-2-phenylpyrazolo[4,3-e]-1,2,4-triazolo[1,5-c]pyrimidine] | 172 to 173
CCCCc1nc2nn(Cc3ccccc3)cc2c2nc(-c3ccccc3)nn12 [Example 117, 8-benzyl-5-n-butyl-2-phenylpyrazolo[4,3-e]-1,2,4-triazolo[1,5-c]pyrimidine] | 159 to 160
CCCCc1nc2cccc(C)c2c2nc(-c3ccccc3)nn12 [Example 49, 5-n-butyl-10-methyl-2-phenyl-1,2,4-triazolo[1,5-c]quinazoline] | 123 to 124
CCCCc1nc2nn(CC)cc2c2nc(-c3ccc(F)cc3)nn12 [Example 144, 5-n-butyl-8-ethyl-2-(4-fluorophenyl)pyrazolo[4,3-e]-1,2,4-triazolo[1,5-c]pyrimidine] | 146 to 147
CCCCc1nc2nncc-2c2nc(-c3ccc(OCCC)cc3)[nH]n12 [Example 14, 5-n-butyl-2-(4-propoxyphenyl)pyrazolo[4,3-e]-1,2,4-triazolo[1,5-c]pyrimidine] | 191 to 192
CCCCc1nc2c(cnn2CC(=O)OCC)c2nc(-c3ccccc3)nn12 [Example 128, ethyl 2-(5-n-butyl-2-phenylpyrazolo[4,3-e]-1,2,4-triazolo[1,5-c]pyrimidin-7-yl)acetate] | 131.5 to 132.5
CCCCc1nc2nn(CCC)cc2c2nc(-c3ccc(C)cc3)nn12 [Example 123, 5-n-butyl-2-(4-methylphenyl)-8-n-propylpyrazolo[4,3-e]-1,2,4-triazolo[1,5-c]pyrimidine] | 101.5 to 103.5
CCCCc1nc2nn(CCO)cc2c2nc(-c3ccc(OC)cc3)nn12 [Example 141, 5-n-butyl-8-(2-hydroxyethyl)-2-(4-methoxyphenyl)pyrazolo[4,3-e]-1,2,4-triazolo[1,5-c]pyrimidine] | 178 to 179
COC(=O)CCCc1nc2ccccc2c2nc(-c3ccc(C)cc3)nn12 [Example 100, methyl 4-[2-(4-methylphenyl)-1,2,4-triazolo[1,5-c]quinazolin-5-yl]butyrate] | 120.5 to 121.5
